In patent US20240277620A1, “MIXED SOLVENTS FOR SPRAY DRYING FOR PREPARATION OF AMORPHOUS SOLID DISPERSIONS” (Lonza Bend Inc., priority 2021, published 2024):
Where “and” joins values, the source holds several entries; their conditions need not be identical. Equal values may be shown once.

Test: Determination of saturation concentration of drug in solvent (TGA of filtered saturated solution)

Compound: Cc1cn(-c2cc(NC(=O)c3ccc(C)c(Nc4nccc(-c5cccnc5)n4)c3)cc(C(F)(F)F)c2)cn1 [Nilotinib, nilotinib]
- Concentration (EtOAc:EtOH 0:100, 25° C.): 1690 µg/mL
- Concentration (wt %) (EtOAc:EtOH 0:100, 25° C.): 0.214 wt %
- Concentration (EtOAc:EtOH 15:85, 25° C.): 2380 µg/mL
- Concentration (wt %) (EtOAc:EtOH 15:85, 25° C.): 0.30 wt %
- Concentration (EtOAc:EtOH 40:60, 25° C.): 3400 µg/mL
- Concentration (wt %) (EtOAc:EtOH 40:60, 25° C.): 0.408 wt %
- Concentration (EtOAc:EtOH 55:45, 25° C.): 4690 µg/mL
- Concentration (wt %) (EtOAc:EtOH 55:45, 25° C.): 0.518 wt %
- Concentration (EtOAc:EtOH 70:30, 25° C.): 3390 µg/mL
- Concentration (wt %) (EtOAc:EtOH 70:30, 25° C.): 0.392 wt %
- Concentration (EtOAc:EtOH 85:15, 25° C.): 2030 µg/mL
- Concentration (wt %) (EtOAc:EtOH 85:15, 25° C.): 0.230 wt %
- Concentration (EtOAc:EtOH 100:0, 25° C.): 690 µg/mL
- Concentration (wt %) (EtOAc:EtOH 100:0, 25° C.): 0.076 wt %
- Solubility (wt %) (MeOAc/MeOH, MeOH 0 wt %): 0.091 wt %
- Solubility (wt %) (MeOAc/MeOH, MeOH 15 wt %): 0.496 wt %
- Solubility (wt %) (MeOAc/MeOH, MeOH 30 wt %): 0.763 wt %
- Solubility (wt %) (MeOAc/MeOH, MeOH 45 wt %): 0.962 wt %
- Solubility (wt %) (MeOAc/MeOH, MeOH 60 wt %): 0.868 wt %
- Solubility (wt %) (MeOAc/MeOH, MeOH 85 wt %): 0.486 wt %
- Solubility (wt %) (MeOAc/MeOH, MeOH 100 wt %): 0.371 wt %
- Concentration (MeOAc:MeOH 0:100, 25° C.): 2940 µg/mL
- Concentration (wt %) (MeOAc:MeOH 0:100, 25° C.): 0.371 wt %
- Concentration (MeOAc:MeOH 15:85, 25° C.): 3940 µg/mL
- Concentration (wt %) (MeOAc:MeOH 15:85, 25° C.): 0.486 wt %
- Concentration (MeOAc:MeOH 40:60, 25° C.): 7320 µg/mL
- Concentration (wt %) (MeOAc:MeOH 40:60, 25° C.): 0.868 wt %
- Concentration (MeOAc:MeOH 55:45, 25° C.): 8310 µg/mL
- Concentration (wt %) (MeOAc:MeOH 55:45, 25° C.): 0.961 wt %
- Concentration (MeOAc:MeOH 70:30, 25° C.): 6760 µg/mL
- Concentration (wt %) (MeOAc:MeOH 70:30, 25° C.): 0.763 wt %
- Concentration (MeOAc:MeOH 85:15, 25° C.): 4510 µg/mL
- Concentration (wt %) (MeOAc:MeOH 85:15, 25° C.): 0.496 wt %
- Concentration (MeOAc:MeOH 100:0, 25° C.): 850 µg/mL
- Concentration (wt %) (MeOAc:MeOH 100:0, 25° C.): 0.091 wt %

Compound: O=C(O)c1cc(/N=N/c2ccc(S(=O)(=O)Nc3ccccn3)cc2)ccc1O [Sulfasalazine, sulfasalazine]
- Solubility (wt %) (EtOAc/MeOH, MeOH 0 wt %): 0.065 wt % and 0.091 wt %
- Solubility (wt %) (EtOAc/MeOH, MeOH 15 wt %): 0.500 wt %
- Solubility (wt %) (EtOAc/MeOH, MeOH 20 wt %): 0.430 wt %
- Solubility (wt %) (EtOAc/MeOH, MeOH 30 wt %): 0.847 wt %
- Solubility (wt %) (EtOAc/MeOH, MeOH 35 wt %): 0.593 wt %
- Solubility (wt %) (EtOAc/MeOH, MeOH 45 wt %): 1.028 wt %
- Solubility (wt %) (EtOAc/MeOH, MeOH 50 wt %): 0.497 wt %
- Solubility (wt %) (EtOAc/MeOH, MeOH 60 wt %): 0.878 wt %
- Solubility (wt %) (EtOAc/MeOH, MeOH 65 wt %): 0.481 wt %
- Solubility (wt %) (EtOAc/MeOH, MeOH 80 wt %): 0.370 wt %
- Solubility (wt %) (EtOAc/MeOH, MeOH 85 wt %): 0.532 wt %
- Solubility (wt %) (EtOAc/MeOH, MeOH 100 wt %): 0.153 wt % and 0.371 wt %
- Concentration (EtOAc:EtOH 0:100, 25° C.): 1030 µg/mL
- Concentration (wt %) (EtOAc:EtOH 0:100, 25° C.): 0.130 wt %
- Concentration (EtOAc:EtOH 15:85, 25° C.): 1740 µg/mL
- Concentration (wt %) (EtOAc:EtOH 15:85, 25° C.): 0.22 wt %
- Concentration (EtOAc:EtOH 40:60, 25° C.): 2670 µg/mL
- Concentration (wt %) (EtOAc:EtOH 40:60, 25° C.): 0.321 wt %
- Concentration (EtOAc:EtOH 55:45, 25° C.): 2890 µg/mL
- Concentration (wt %) (EtOAc:EtOH 55:45, 25° C.): 0.341 wt %
- Concentration (EtOAc:EtOH 70:30, 25° C.): 3200 µg/mL
- Concentration (wt %) (EtOAc:EtOH 70:30, 25° C.): 0.370 wt %
- Concentration (EtOAc:EtOH 85:15, 25° C.): 2170 µg/mL
- Concentration (wt %) (EtOAc:EtOH 85:15, 25° C.): 0.246 wt %
- Concentration (EtOAc:EtOH 100:0, 25° C.): 360 µg/mL
- Concentration (wt %) (EtOAc:EtOH 100:0, 25° C.): 0.040 wt %
- Solubility (wt %) (MeOAc/MeOH, MeOH 0 wt %): 0.065 wt %
- Solubility (wt %) (MeOAc/MeOH, MeOH 20 wt %): 0.403 wt %
- Solubility (wt %) (MeOAc/MeOH, MeOH 35 wt %): 0.482 wt %
- Solubility (wt %) (MeOAc/MeOH, MeOH 50 wt %): 0.426 wt %
- Solubility (wt %) (MeOAc/MeOH, MeOH 65 wt %): 0.341 wt %
- Solubility (wt %) (MeOAc/MeOH, MeOH 80 wt %): 0.250 wt %
- Solubility (wt %) (MeOAc/MeOH, MeOH 100 wt %): 0.153 wt %
- Concentration (MeOAc:MeOH 0:100, 25° C.): 1210 µg/mL
- Concentration (wt %) (MeOAc:MeOH 0:100, 25° C.): 0.153 wt %
- Concentration (MeOAc:MeOH 20:80, 25° C.): 2220 µg/mL
- Concentration (wt %) (MeOAc:MeOH 20:80, 25° C.): 0.250 wt %
- Concentration (MeOAc:MeOH 35:65, 25° C.): 2850 µg/mL
- Concentration (wt %) (MeOAc:MeOH 35:65, 25° C.): 0.341 wt %
- Concentration (MeOAc:MeOH 50:50, 25° C.): 3650 µg/mL
- Concentration (wt %) (MeOAc:MeOH 50:50, 25° C.): 0.426 wt %
- Concentration (MeOAc:MeOH 65:35, 25° C.): 4230 µg/mL
- Concentration (wt %) (MeOAc:MeOH 65:35, 25° C.): 0.482 wt %
- Concentration (MeOAc:MeOH 80:20, 25° C.): 3630 µg/mL
- Concentration (wt %) (MeOAc:MeOH 80:20, 25° C.): 0.403 wt %
- Concentration (MeOAc:MeOH 100:0, 25° C.): 610 µg/mL
- Concentration (wt %) (MeOAc:MeOH 100:0, 25° C.): 0.065 wt %
